Reference: patent US8586739B2, “Heterocyclic compounds and their uses” (Amgen Inc., priority 2007, dated 2013)

Legend:
[1] = system: mouse model of rheumatoid arthritis; settings: in vivo; cited from earlier work
[2] = system: model of systemic lupus erythematosis; settings: in vivo; cited from earlier work
PI3Kδ = biological target: T1, PI3Kδ (Homo sapiens, UniProt O00329); experiment: In vitro enzyme assay of recombinant PI3K (residual ATP bioluminescence); assay type: biochemical
T1 construct: Full length p110 subunits of PI3k α, β and δ, N-terminally labeled with polyHis tag; polyHis (N); made in house; host or cells: Sf9 insect cells (baculovirus)
T1 sequence (O00329 whole entry): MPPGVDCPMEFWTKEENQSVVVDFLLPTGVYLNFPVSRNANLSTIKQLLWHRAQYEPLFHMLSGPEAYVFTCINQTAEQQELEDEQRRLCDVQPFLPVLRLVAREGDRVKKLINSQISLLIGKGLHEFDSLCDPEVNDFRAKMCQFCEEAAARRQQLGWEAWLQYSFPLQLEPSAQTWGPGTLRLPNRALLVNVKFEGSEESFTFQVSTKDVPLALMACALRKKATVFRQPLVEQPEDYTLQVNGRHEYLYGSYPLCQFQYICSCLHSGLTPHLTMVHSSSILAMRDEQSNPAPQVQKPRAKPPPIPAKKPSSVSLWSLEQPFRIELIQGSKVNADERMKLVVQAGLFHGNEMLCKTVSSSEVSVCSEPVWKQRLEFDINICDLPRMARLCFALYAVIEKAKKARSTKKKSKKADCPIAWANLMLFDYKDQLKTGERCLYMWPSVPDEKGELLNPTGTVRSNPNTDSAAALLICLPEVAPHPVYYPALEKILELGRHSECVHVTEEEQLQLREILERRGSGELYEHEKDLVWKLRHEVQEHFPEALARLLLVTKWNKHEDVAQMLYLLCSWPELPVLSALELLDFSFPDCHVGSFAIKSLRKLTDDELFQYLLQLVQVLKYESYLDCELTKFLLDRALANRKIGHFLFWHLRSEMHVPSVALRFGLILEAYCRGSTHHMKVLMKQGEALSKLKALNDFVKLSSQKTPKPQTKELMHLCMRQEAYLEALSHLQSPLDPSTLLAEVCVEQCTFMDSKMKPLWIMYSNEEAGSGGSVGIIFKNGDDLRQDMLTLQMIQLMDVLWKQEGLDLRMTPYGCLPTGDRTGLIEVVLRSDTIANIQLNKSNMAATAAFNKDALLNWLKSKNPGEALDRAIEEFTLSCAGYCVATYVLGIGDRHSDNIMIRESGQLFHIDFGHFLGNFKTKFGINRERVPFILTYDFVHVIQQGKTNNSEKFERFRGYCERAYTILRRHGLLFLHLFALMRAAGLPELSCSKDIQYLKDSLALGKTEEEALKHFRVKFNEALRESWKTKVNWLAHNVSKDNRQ
T1 sequence (P27986 whole entry partner): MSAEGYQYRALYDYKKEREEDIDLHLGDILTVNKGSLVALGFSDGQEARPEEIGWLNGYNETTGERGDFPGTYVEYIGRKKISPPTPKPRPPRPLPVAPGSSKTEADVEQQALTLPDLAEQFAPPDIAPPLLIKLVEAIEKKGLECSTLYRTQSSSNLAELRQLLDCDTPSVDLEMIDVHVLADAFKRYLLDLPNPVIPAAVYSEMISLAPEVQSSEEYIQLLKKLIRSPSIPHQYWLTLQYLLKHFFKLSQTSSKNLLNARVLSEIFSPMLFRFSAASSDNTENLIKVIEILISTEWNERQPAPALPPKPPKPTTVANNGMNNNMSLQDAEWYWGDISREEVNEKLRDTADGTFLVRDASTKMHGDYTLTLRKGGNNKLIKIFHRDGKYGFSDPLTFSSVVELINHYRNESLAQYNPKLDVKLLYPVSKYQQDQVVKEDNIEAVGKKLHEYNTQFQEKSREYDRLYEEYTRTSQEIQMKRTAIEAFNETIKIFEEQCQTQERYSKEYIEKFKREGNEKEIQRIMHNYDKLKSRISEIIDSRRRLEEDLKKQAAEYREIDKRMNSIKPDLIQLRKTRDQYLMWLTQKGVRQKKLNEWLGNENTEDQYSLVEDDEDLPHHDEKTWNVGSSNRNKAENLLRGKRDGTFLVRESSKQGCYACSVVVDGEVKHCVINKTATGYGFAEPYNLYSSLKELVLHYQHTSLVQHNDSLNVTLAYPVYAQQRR
Procedure: Recombinant Expression of PI3Ks
Full length p110 subunits of PI3k α, β and δ, N-terminally labeled with polyHis tag, were coexpressed with p85 with Baculo virus expression vectors in sf9 insect cells. P110/p85 heterodimers were purified by sequential Ni-NTA, Q-HP, Superdex-100 chromatography. Purified α, β and δ isozymes were stored at −20° C. in 20 mM Tris, pH 8, 0.2M NaCl, 50% glycerol, 5 mM DTT, 2 mM Na cholate. Truncated PI3Kγ, residues 114-1102, N-terminally labeled with polyHis tag, was expessed with Baculo virus in Hi5 insect cells. The γ isozyme was purified by sequential Ni-NTA, Superdex-200, Q-HP chromatography. The γ isozyme was stored frozen at −80° C. in NaH2PO4, pH 8, 0.2M NaCl, 1% ethylene glycol, 2 mM β-mercaptoethanol.
Assays were performed in 25 μL with the above final concentrations of components in white polyproplyene plates (Costar 3355). Phospatidyl inositol phosphoacceptor, PtdIns(4,5)P2 P4508, was from Echelon Biosciences. The ATPase activity of the alpha and gamma isozymes was not greatly stimulated by PtdIns(4,5)P2 under these conditions and was therefore omitted from the assay of these isozymes. Test compounds were dissolved in dimethyl sulfoxide and diluted with three-fold serial dilutions. The compound in DMSO (1 μL) was added per test well, and the inhibition relative to reactions containing no compound, with and without enzyme was determined. After assay incubation at room temperature, the reaction was stopped and residual ATP determined by addition of an equal volume of a commercial ATP bioluminescence kit (Perkin Elmer EasyLite) according to the manufacturer's instructions, and detected using a AnalystGT luminometer.

p110δ = settings: cited from earlier work
protein kinases = settings: cited from earlier work
murine model of asthma = settings: ovalbumin-induced airway inflammation; cited from earlier work
P110β = settings: cited from earlier work

| Structure (SMILES) | IC50 (PI3Kδ) | also measured |
| --- | --- | --- |
| O=C1NC(=O)/C(=C\c2ccc3nccnc3c2)S1 [AS 605240] |  | efficacy in a mouse model of rheumatoid arthritis [1]: efficacious; onset of disease in a model of systemic lupus erythematosis [2]: delay onset of disease |
| Clc1nc(NCc2cc3cccc(Cl)c3nc2-c2ccccc2Cl)c2nc[nH]c2n1 [Example 3, 2-Chloro-N-((8-chloro-2-(2-chlorophenyl)quinolin-3-yl)methyl)-9H-purin-6-amine] | 0.615 µM |  |
| COc1nc(NCc2cc3cccc(Cl)c3nc2-c2ccccc2Cl)c2cc[nH]c2n1 [Example 4, N-((8-Chloro-2-(2-chlorophenyl)quinolin-3-yl)methyl)-2-meth-oxy-7H-pyrrolo[2,3-d]pyrimidin-4-amine] | 5.42 µM |  |
| Cc1ccccc1-c1nc2c(C)cccc2cc1C(C)Oc1ncnc2[nH]cnc12 (centres unmarked) [Example 5, 3-(1-(9H-Purin-6-yloxy)ethyl)-8-methyl-2-o-tolylquinoline] | 0.012 µM |  |
| Cc1cccc2cc(C(C)Nc3ncnc4[nH]cnc34)c(-c3ccccc3Cl)nc12 (centres unmarked) [Example 6, N-(1-(2-(2-Chlorophenyl)-8-methylquinolin-3-yl)ethyl)-9H-purin-6-amine] | 0.031 µM |  |
| Cc1ccccc1-c1nc2c(C)cccc2cc1COc1ncnc2[nH]ccc12 [Example 14] | 0.056 µM |  |
| Cc1cccc2cc(COc3ncnc4[nH]ccc34)c(-c3ccccc3)nc12 [Example 15, 3-((7H-Pyrrolo[2,3-d]pyrimidin-4-yloxy)methyl)-8-methyl-2-phenylquinoline] | 0.068 µM |  |
| COc1cccc(F)c1-c1nc2c(C)cccc2cc1CNc1ncnc2[nH]cnc12 [Example 17, N-((2-(2-Fluoro-6-methoxyphenyl)-8-methylquinolin-3-yl)methyl)-9H-purin-6-amine] | 0.651 µM |  |
| Cc1cccc2nc(-c3ccccc3Cl)c(CNc3ncnc4[nH]cnc34)nc12 [Example 18, N-((3-(2-Chlorophenyl)-8-methylquinoxalin-2-yl)methyl)-9H-purin-6-amine] | 0.325 µM |  |
| Fc1cccc(-c2nc3c(Cl)cccc3cc2CNc2ncnc3[nH]cnc23)c1 [Example 31, N-((8-Chloro-2-(3-fluorophenyl)quinolin-3-yl)methyl)-9H-purin-6-amine] | 0.074 µM |  |
| Fc1cc(F)cc(-c2nc3c(Cl)cccc3cc2CNc2ncnc3[nH]cnc23)c1 [Example 33, N-((8-Chloro-2-(3,5-difluorophenyl)quinolin-3-yl)methyl)-9H-purin-6-amine] | 0.076 µM |  |
| Fc1ccc2cc(CNc3ncnc4[nH]cnc34)c(-c3ccccc3Cl)nc2c1 [Example 36, N-((2-(2-Chlorophenyl)-7-fluoroquinolin-3-yl)methyl)-9H-purin-6-amine] | 0.225 µM |  |
| Fc1ccc2nc(-c3ccccc3Cl)c(CNc3ncnc4[nH]cnc34)cc2c1 [Example 37, N-((2-(2-Chlorophenyl)-6-fluoroquinolin-3-yl)methyl)-9H-purin-6-amine] | 1.68 µM |  |
| Fc1cc2cc(CNc3ncnc4[nH]cnc34)c(-c3ccccc3Cl)nc2cc1F [Example 38, N-((2-(2-Chlorophenyl)-6,7-difluoroquinolin-3-yl)methyl)-9H-purin-6-amine] | 0.551 µM |  |
| CC[C@H](Nc1ncnc2[nH]cnc12)c1cc2cccc(Cl)c2nc1-c1cccc(F)c1 [Example 42, N-((S)-1-(8-Chloro-2-(3-fluorophenyl)quinolin-3-yl)propyl)-9H-purin-6-amine] | 0.013 µM |  |
| C[C@H](Nc1ncnc2[nH]cnc12)c1nc2cccc(Cl)c2cc1-c1cccc(F)c1 [Example 43, N-((S)-1-(5-Chloro-3-(3-fluorophenyl)quinolin-2-yl)ethyl)-9H-purin-6-amine] | 0.005 µM |  |
| Cc1ccccc1-n1c(Cn2cnc3c(N)ncnc32)nc2cccc(C)c2c1=O [IC87114] |  | inhibits p110δ (p110δ): high nanomolar range (triple digit); activity against any protein kinases tested (protein kinases): no activity; inflammation and disease in a murine model of asthma (murine model of asthma): significantly ameliorate inflammation and disease |
| C[C@@H](Nc1ncnc2[nH]cnc12)c1cc2cccc(Cl)c2nc1-c1cccc(F)c1 [N-((R)-1-(8-Chloro-2-(3-fluorophenyl)quinolin-3-yl)ethyl)-9H-purin-6-amine] | 0.424 µM |  |
| Cc1cc(C(C)Nc2ccccc2)c2nc(N3CCOCC3)cc(=O)n2c1 (centres unmarked) [TGX-221] |  | selective over alpha (P110β; beta versus alpha): more than 500 fold; selective over delta (P110β; beta versus delta): 14 fold; selective over gamma (P110β; beta versus gamma): more than 500 fold; IC50 (P110β; read-out: potency on beta): 0.007 µM |

Further molecules by falling IC50 (PI3Kδ), results first:

| IC50 (PI3Kδ) | Structure (SMILES) | also measured |
| --- | --- | --- |
| 0.889 µM | Cc1ccccc1-c1nc2c(C)cccc2cc1CSc1ncnc2[nH]cnc12 [Example 12, 3-((9H-Purin-6-ylthio)methyl)-8-methyl-2-o-tolylquinoline] |  |
| 0.349 µM | Cc1ccccc1-c1nc2c(C)cccc2cc1COc1ncnc2c1CC(=O)N2 [Example 20, 4-((8-Methyl-2-o-tolylquinolin-3-yl)methoxy)-5H-pyrrolo[2,3-d]pyrimidin-6(7H)-one] |  |
| 0.27 µM | Clc1cccc2cc(CNc3ncnc4[nH]ccc34)c(-c3ccccc3)nc12 [Example 32, N-((8-chloro-2-phenylquinolin-3-yl)methyl)-7H-pyrrolo[2,3-d]pyrimidin-4-amine] |  |
| 0.222 µM | CS(=O)(=O)c1ccccc1-c1nc2c(Cl)cccc2cc1CNc1ncnc2[nH]cnc12 [Example 35, N-((8-chloro-2-(2-(methylsulfonyl)phenyl)quinolin-3-yl)methyl)-9H-purin-6-amine] |  |
| 0.125 µM | Clc1cccc2cc(CNc3ncnc4[nH]cnc34)c(Oc3ccccc3)nc12 [Example 30, N-((8-Chloro-2-phenoxyquinolin-3-yl)methyl)-9H-purin-6-amine] |  |
| 0.091 µM | Cc1cccc2cc(CNc3ncnc4[nH]cnc34)c(-c3ccccc3C(F)(F)F)nc12 [Example 16, N-((8-Methyl-2-(2-(trifluoromethyl)phenyl)quinolin-3-yl)methyl)-9H-purin-6-amine] |  |
| 0.082 µM | Cc1ccccc1-c1nc2c(C)cccc2cc1CNc1nc(N)nc2[nH]cnc12 [Example 13, N6-((8-Methyl-2-o-tolylquinolin-3-yl)methyl)-9H-purine-2,6-diamine] |  |
| 0.066 µM | Cc1cccc2nc(CNc3ncnc4[nH]cnc34)c(-c3ccccc3Cl)nc12 [Example 19, N-((3-(2-Chlorophenyl)-5-methylquinoxalin-2-yl)methyl)-9H-purin-6-amine] |  |
| 0.038 µM | COc1ccccc1-c1nc2c(C)cccc2cc1COc1ncnc2[nH]cnc12 [Example 7, 3-((9H-Purin-6-yloxy)methyl)-2-(2-methoxyphenyl)-8-methylquinoline] |  |
| 0.031 µM | Fc1ccc(OCc2ccccc2)c(-c2nc3c(Cl)cccc3cc2CNc2ncnc3[nH]cnc23)c1 [Example 39, N-((2-(2-(Benzyloxy)-5-fluorophenyl)-8-chloroquinolin-3-yl)methyl)-9H-purin-6-amine] |  |
| 0.028 µM | C=CCC(Oc1ncnc2[nH]ccc12)c1cc2cccc(C)c2nc1-c1ccccc1Cl (centres unmarked) [Example 9, 3-(1-(7H-Pyrrolo[2,3-d]pyrimidin-4-yloxy)but-3-enyl)-2-(2-chlorophenyl)-8-methylquinoline] |  |
| 0.025 µM | Cc1cccc2cc(COc3ncnc4[nH]cnc34)c(-c3ccccc3Cl)nc12 [Example 10, 3-((9H-Purin-6-yloxy)methyl)-2-(2-chlorophenyl)-8-methylquinoline] |  |
| 0.022 µM | Cc1cccc2cc(COc3ncnc4[nH]cnc34)c(-c3ccccc3-c3ccccc3)nc12 [Example 8, 3-((9H-Purin-6-yloxy)methyl)-2-(biphenyl)-8-methylquinoline] |  |
| 0.016 µM | C[C@H](Nc1ncnc2[nH]cnc12)c1cc2cccc(Cl)c2nc1-c1cscn1 [Example 44, N-((S)-1-(8-Chloro-2-(thiazol-4-yl)quinolin-3-yl)ethyl)-9H-purin-6-amine] |  |
| 0.008 µM | C[C@H](Nc1ncnc2[nH]cnc12)c1cc2ccc(F)cc2nc1-c1cccs1 [Example 46, N-((S)-1-(7-Fluoro-2-(thiophen-2-yl)quinolin-3-yl)ethyl)-9H-purin-6-amine] |  |
| 0.006 µM | C[C@H](Nc1ncnc2[nH]cnc12)c1cc2cccc(Cl)c2nc1-c1cccc(F)c1 [N-((S)-1-(8-Chloro-2-(3-fluorophenyl)quinolin-3-yl)ethyl)-9H-purin-6-amine] |  |
